From patent publication US20240182444A1, “ANTI-VIRAL COMPOUNDS” (Aligos Therapeutics, Inc., priority 2022, published 2024) come the findings set out here.

Structures are written as SMILES. pEC50, pIC50: −log10 of the molar value. Where two headings read alike, the source gives them in different places. Where only a bound is given, the exact number is not on record here.

The subject of series [1] is SARS-CoV-2 B.1.1.7 lineage. In words: microbe, parasite or virus in culture. It is filed as cell-based. The conditions noted are these: Severe acute respiratory syndrome coronavirus 2, 96 h; read-out: A549-dual_ACE2_TMPRSS2 (EC50).
A further series concerns the target T1, SARS-Cov-2 3CLpro (Severe acute respiratory syndrome coronavirus 2, UniProt P0DTD1).
T1 construct: 3CLpro was added using a Multidrop Combi
The series is described as follows: SARS-Cov-2 3CLpro protease assay (SAMDI-MS). It is filed as biochemical.

The next series can be described thus: in vitro. Particulars: human.
Series [2] is described as follows: Cytotoxicity in HeLa cells without OC43 virus. It is filed as cell-based. The conditions noted are these: human, HeLa cells (uninfected), in parallel. On the procedure:
(§1) The human beta-coronavirus OC43 was purchased from ATCC (Manassas, VA) and propagated using HCT-8 human colorectal epithelial cells (ATCC). HeLa human cervical epithelial cells (ATCC) were used as susceptible host cell lines and were cultured using EMEM media, supplemented with 10% fetal bovine serum (FBS), 1% (v/v) penicillin/streptomycin (P/S), 1% (v/v) HEPES and 1% (v/v) cellgro Glutagro™ supplement (all Corning, Manassas, VA) at 37° C. For the OC43 antiviral assay, 1.5×10^4 HeLa cells per well were plated in 100 μL complete media in white 96-well plates with clear bottoms at 37° C. for up to 24 h to facilitate attachment and allow cells to recover from seeding stresses. Next day, the cell culture medium was removed. Serially diluted compounds in 100 μL assay media (EMEM, 2% FBS, 1% P/S, 1% cellgro Glutagro™ supplement, 1% HEPES) were added to the cells and incubated for 4 h at 37° C. in a humidified 5% CO2 incubator. 100 μL of OC43 virus stock was diluted to a concentration known to produce optimal cytopathic effect, inducing 80-90% reduction in cell viability. 96-well plates were incubated for 6 days at 33° C.; each plate contains uninfected control wells as well as virus-infected wells that were not treated with compound. Cytotoxicity plates without the addition of OC43 virus were carried out in parallel. At the end of the incubation period, 100 μL cell culture supernatant was replaced with 100 μL cell-titer-glo reagent (Promega, Madison, WI) and incubated for at least 10 min at rt prior to measuring luminescence. Luminescence was measured on a Perkin Elmer (Waltham, MA) Envision plate reader. Antiviral % inhibition was calculated as follows: [(Compound treated cells infected sample)−(no compound infected control)]/[(Uninfected control)−(no compound infected control)]*100; Using GraphPad (San Diego, CA) prism software version 8.3.1, the antiviral dose-response plot was generated as a sigmoidal fit, log(inhibitor) vs response-variable slope (four parameters) model and the EC50 was calculated which is the predicted compound concentration corresponding to a 50% inhibition of the viral cytopathic effect.
(§2) Table 2 indicates related EC50 and CC50 values for the tested compounds ‘A’ indicates an EC50<100 nM, ‘B’ indicates an EC50 of ≥100 nM and <1000 nM, ‘C’ indicates an EC50≥1000 nM and <10000 nM and ‘D’ indicates an EC50≥10000 nM and <100000 nM. For CC50, the values are reported in micromolar (M), ‘A’ indicates a CC50≥10000 nM and ‘B’ indicates a CC50≥1 μM and <10 μM.

Series [3] concerns human beta-coronavirus OC43. In words: OC43 coronavirus antiviral assay in HeLa cells. It is filed as cell-based. The conditions noted are these: Betacoronavirus 1, 144 h, OC43, 6 days at 33° C., cell-titer-glo. On the procedure: as §1, §2
[4] abbreviates: 30 mins preincubation, duplex peptide substrates, read-out: SARS-Cov-2 (3CLpro IC50).

The term pEC50 denotes the EC50 on a negative log10 scale, so that one unit is a factor of ten.

Take `CC(C)(C)[C@H](NC(=O)C(F)(F)F)C(=O)N1C[C@@H]2[C@H]3C[C@@H]([C@@H]2[C@H]1C(=O)NC(C#N)c1cncn1-c1ccccc1)[C@H](F)C3` (stereo partly drawn) [Compound 23]: in series [1], the pEC50 was not above 6.00. Besides, the pIC50 on SARS-Cov-2 3CLpro (setting [4]) was 6.70 to 7.70; at SARS-Cov-2 3CLpro (bound given in table footnote, read-out: SARS-Cov-2 activity (footnote of Table 1)) it was less than 6.30. For the same molecule, the CC50 in “in vitro” is more than 1 µM.
As for `CC(C)(C)[C@H](NC(=O)C(F)(F)F)C(=O)N1C[C@H]2[C@@H]([C@H]1C(=O)NC1(C#N)CCc3ccncc31)[C@H]1C=C[C@@H]2C1` (stereo partly drawn) [Compound 5, (1R,2S,3S,6R,7S)—N-{7-cyano-5H,6H-cyclopenta[c]pyridin-7-yl}-4-[(2S)-3,3-dimethyl-2-(2,2,2-trifluoroacetamido)butanoyl]-4-azatricyclo[5.2.1.0^{2,6}]dec-8-ene-3-carboxamide], the pEC50 in series [1] was not above 6.00; in series [3], 5.00 to 6.00. The pIC50 on SARS-Cov-2 3CLpro (setting [4]) was 5.70 to 6.70. In addition, the CC50 in “in vitro” is more than 1 µM. The CC50 at 6 days in series [2] was not below 10 µM.
The like results for `CC(C)(C)[C@H](NC(=O)C(F)(F)F)C(=O)N1C[C@@H]2[C@H]3C[C@@H]([C@@H]2[C@H]1C(=O)NC(C#N)c1cncc2cnccc12)[C@H](F)C3` (stereo partly drawn) [Compound 22] were, in that order, 6.00 to 7.00, 5.00 to 6.00, more than 7.70, more than 1 µM and not below 10 µM.
The like results for `COc1cccc2cncc(C(C#N)NC(=O)[C@@H]3[C@@H](c4ccccc4)CCN3C(=O)[C@@H](NC(=O)C(F)(F)F)C(C)(C)C)c12` (stereo partly drawn) [Compound 30] were, in that order, not above 6.00, 5.00 to 6.00, 6.70 to 7.70, more than 1 µM and not below 10 µM.
On the same counts, the results for `COc1cccn2ncc(C(C#N)NC(=O)[C@@H]3[C@@H]4[C@H](CN3C(=O)[C@@H](NC(=O)C(F)(F)F)C(C)(C)C)[C@H]3C[C@@H]4[C@H](F)C3)c12` (stereo partly drawn) [Compound 19] are more than 7.00, 6.00 to 7.00, more than 7.70, more than 1 µM and not below 10 µM.
As to `CC(C)(C)[C@H](NC(=O)C(F)(F)F)C(=O)N1C[C@H]2[C@@H]([C@H]1C(=O)NC(C#N)c1nc[nH]n1)[C@H]1C=C[C@@H]2C1` (stereo partly drawn) [Compound 4, (1R,2S,3S,6R,7S)—N-[cyano(1H-1,2,4-triazol-3-yl)methyl]-4-[(2S)-3,3-dimethyl-2-(2,2,2-trifluoroacetamido)butanoyl]-4-azatricyclo[5.2.1.0^{2,6}]dec-8-ene-3-carboxamide], the pIC50 at SARS-Cov-2 3CLpro (setting [4]) is 5.70 to 6.70. In series [2], this molecule had a CC50 at 6 days not below 10 µM. The pEC50 in series [3] is 5.00 to 6.00.
For the molecule `COc1cccc2cncc(C(C#N)NC(=O)[C@@H]3[C@@H]4[C@H](CN3C(=O)[C@@H](NC(=O)C(F)(F)F)C(C)(C)C)[C@H]3C[C@@H]4[C@H](F)C3)c12` (stereo partly drawn) [Compound 26], the negative-log EC50 (pEC50) in series [1] and in series [3] was more than 7.00 in each case. Further, on SARS-Cov-2 3CLpro (setting [4]), the pIC50 was more than 7.70. This molecule also had a CC50 in “in vitro” of more than 1 µM. In series [2], the CC50 at 6 days is not below 10 µM.
With `CC(C)(C)[C@H](NC(=O)C(F)(F)F)C(=O)N1C[C@@H]2[C@H]3C[C@@H]([C@@H]2[C@H]1C(=O)NC(C#N)c1cncc(Cl)c1Cl)[C@H](F)C3` (stereo partly drawn) [Compound 10, (1S,2R,3S,6R,7S,9R)—N-[cyano(4,5-dichloropyridin-3-yl)methyl]-4-[(2S)-3,3-dimethyl-2-(2,2,2-trifluoroacetamido)butanoyl]-9-fluoro-4-azatricyclo[5.2.1.0^{2,6}]decane-3-carboxamide], the pEC50 was not above 6.00 in series [1] and 6.00 to 7.00 in series [3]. Also, the pIC50 at SARS-Cov-2 3CLpro (setting [4]) is more than 7.70. This molecule gave a CC50 in “in vitro” of more than 1 µM. This molecule displayed a CC50 at 6 days in series [2] not below 10 µM.
For `N#CC(NC(=O)[C@@H]1[C@@H]2[C@H](CN1C(=O)[C@H](CC1CC1)NC(=O)C(F)(F)F)[C@H]1C[C@@H]2[C@H](F)C1)c1cnn2ccccc12` (stereo partly drawn) [Compound 24], the pEC50 in series [1] and in series [3] was 6.00 to 7.00 throughout. Moreover, the pIC50 at SARS-Cov-2 3CLpro (setting [4]) is more than 7.70. The molecule also gave a CC50 in the series “in vitro” of more than 1 µM. Also, the CC50 at 6 days in series [2] is not below 10 µM.
For `CC(C)(C)[C@H](NC(=O)C(F)(F)F)C(=O)N1C[C@@H]2[C@H]3C[C@@H]([C@@H]2[C@H]1C(=O)NC(C#N)c1cnn2ccccc12)[C@H](F)C3` (stereo partly drawn) [Compound 25], the pEC50 in series [1] and in series [3] was 6.00 to 7.00 in each case. Moreover, at SARS-Cov-2 3CLpro (setting [4]), the pIC50 is more than 7.70. Further, the CC50 in the series “in vitro” is more than 1 µM. In addition, the CC50 at 6 days in series [2] is not below 10 µM.
For the molecule `N#CC(NC(=O)C1[C@@H]2[C@H](CN1C(=O)c1cnn(-c3ccccc3C(F)(F)F)c1)[C@H]1C[C@@H]2[C@H](F)C1)c1cncc2ccccc12` (stereo partly drawn) [Compound 12, (1S,2R,3S,6R,7S,9R)—N-[cyano(isoquinolin-4-yl)methyl]-9-fluoro-4-{1-[2-(trifluoromethyl)phenyl]pyrazole-4-carbonyl}-4-azatricyclo[5.2.1.0^{2,6}]decane-3-carboxamide], the pEC50 in series [1] was not above 6.00. The pIC50 on SARS-Cov-2 3CLpro (setting [4]) is 6.70 to 7.70. The CC50 in “in vitro” was more than 1 µM.
For the molecule `CC(C)(C)[C@H](NC(=O)C(F)(F)F)C(=O)N1C[C@@H]2[C@@H]3CC([C@@H]2[C@H]1C(=O)NC(C#N)c1cnn(-c2ccccc2)c1)[C@H](F)C3` (stereo partly drawn) [Compound 13], the pIC50 at SARS-Cov-2 3CLpro (setting [4]) is 5.70 to 6.70.
As for `Cc1ncc2ccccc2c1C(C#N)NC(=O)[C@@H]1[C@@H]2[C@H](CN1C(=O)[C@@H](NC(=O)C(F)(F)F)C(C)(C)C)[C@@H]1C=C[C@H]2C1` (stereo partly drawn) [Compound 21], the pEC50 in series [1] was not above 6.00. Besides, the pIC50 at SARS-Cov-2 3CLpro (setting [4]) was 4.70 to 5.70. This molecule also registered a CC50 in “in vitro” of more than 1 µM.
`CC(C)(C)[C@H](NC(=O)C(F)(F)F)C(=O)N1C[C@@H]2[C@@H]3CC([C@@H]2[C@H]1C(=O)NC(C#N)c1cncc(-c2ccccc2)c1)[C@H](F)C3` (stereo partly drawn) [Compound 14]: the pIC50 at SARS-Cov-2 3CLpro (setting [4]) is more than 7.70.
Turning to `CC(C)(C)[C@H](NC(=O)C(F)(F)F)C(=O)N1C[C@H]2[C@@H]([C@H]1C(=O)NC(C#N)c1cccc3ccccc13)[C@H]1C=C[C@@H]2C1` (stereo partly drawn) [Compound 16], the pEC50 in series [1] is not above 6.00. Moreover, the pIC50 on SARS-Cov-2 3CLpro (setting [4]) was 5.70 to 6.70. The molecule further registered a CC50 in the series “in vitro” of more than 1 µM.
On to `C#CC(NC(=O)[C@@H]1[C@@H]2[C@H](CN1C(=O)[C@@H](NC(=O)C(F)(F)F)C(C)(C)C)[C@H]1C[C@@H]2[C@H](F)C1)c1cncc2ccccc12` (stereo partly drawn) [Compound 32, (1S,3aR,4S,6R,7S,7aR)-2-((S)-3,3-dimethyl-2-(2,2,2-trifluoroacetamido)butanoyl)-6-fluoro-N-(1-(isoquinolin-4-yl)prop-2-yn-1-yl)octahydro-1H-4,7-methanoisoindole-1-carboxamide], for which, at SARS-Cov-2 3CLpro (setting [4]), the pIC50 was 6.70 to 7.70.
Consider `CC(C)(C)[C@H](NC(=O)C(F)(F)F)C(=O)N1C[C@H]2[C@@H]([C@H]1C(=O)NC(C#N)c1cncc3ccccc13)C2(C)C` (stereo partly drawn) [Compound 11, (1R,2S,5S)—N-[cyano(isoquinolin-4-yl)methyl]-3-[(2S)-3,3-dimethyl-2-(2,2,2-trifluoroacetamido)butanoyl]-6,6-dimethyl-3-azabicyclo[3.1.0]hexane-2-carboxamide], for which the negative-log EC50 (pEC50) in series [1] and in series [3] was more than 7.00 each time. Besides, in “in vitro”, the CC50 is more than 1 µM. Also, the CC50 at 6 days in series [2] is not below 10 µM.
With `CC(C)(C)[C@H](NC(=O)C(F)(F)F)C(=O)N1C[C@@H]2[C@@H]3C[C@H]([C@@H]2[C@H]1C(=O)NC(C#N)c1cnn(-c2ccccc2)c1)[C@H](F)C3` (stereo partly drawn) [Compound 13], in series [1], the negative-log EC50 (pEC50) was not above 6.00. The molecule also came in with a CC50 in “in vitro” of more than 1 µM.
As to `CC(C)(C)[C@H](NC(=O)C(F)(F)F)C(=O)N1C[C@@H]2[C@@H]3C[C@H]([C@@H]2[C@H]1C(=O)NC(C#N)c1cncc(-c2ccccc2)c1)[C@H](F)C3` (stereo partly drawn) [Compound 14], the results for the negative logarithm of the EC50 (pEC50) in series [1] and in series [3] were 6.00 to 7.00 and 4.00 to 5.00, respectively. Besides, the CC50 in the series “in vitro” is more than 1 µM. The CC50 at 6 days in series [2] is not below 10 µM.
